The record followed here is patent US20210238187A1, “AZIRIDINE CONTAINING EPOTHILONE ANALOGS, METHODS OF SYNTHESIS, METHODS OF TREATMENT, AND DRUG CONJUGATES” (WILLIAM MARSH RICE UNIVERSITY, priority 2017, published 2021).

Where two headings read alike, the source gives them in different places. Non-standard residues stand in square brackets, D forms with d. Residues, ends and D or L forms follow the SMILES beside them. *: point of attachment. Dolaproine = CO[C@@H]([C@@H]1CCCN1)[C@@H](C)C(=O)O; Dil = CC[C@H](C)[C@H](NC)[C@@H](CC(=O)O)OC; X1 = C[C@@H](N*)[C@@H](O)c1ccccc1; NMeV = CN[C@H](C(=O)O)C(C)C Some results are limits rather than exact numbers.

One data set has as its system MES SA. The data set can be described thus: Cytotoxicity assay (CellTiter-Glo), MES SA. The data set is classed as cell-based, human. Conditions: read-out: Cancer cell lines IC50, MES SA.
The subject of data set [1] is MES SA, MES SA DX, and HEK 293T. The data set can be described thus: Cytotoxicity (IC50), summary over MES SA, MES SA DX and HEK 293T. As to conditions: read-out: IC50 against all three cell lines (summary of Table 4). The data set is classed as cell-based, human.
In another data set the test system is MES SA DX. Put plainly: Cytotoxicity assay (CellTiter-Glo), MES SA DX. The data set is classed as cell-based, human. As to conditions: read-out: Cancer cell lines IC50, MES SA DX. For orientation: In ATP-based viability assays light output follows the ATP content of the culture.
A further data set deals with OVCAR-8. The data set can be described thus: Cytotoxicity (GI50) assay, OVCAR-8. The format is cell-based, human.
A further data set has as its system MDA-MB-435. The data set can be described thus: Cytotoxicity (GI50) assay, MDA-MB-435. The format is cell-based, human.
For another data set, the system named is MCF-7. Put plainly: Cytotoxicity (GI50) assay, MCF-7. The data set is classed as cell-based, human.
Another data set concerns Tubulin. Put plainly: Tubulin assembly induction. The data set is classed as biochemical.
Another data set has as its system HEK 293T. Put plainly: Cytotoxicity assay (CellTiter-Glo), HEK 293T. The format is cell-based. Conditions: Homo sapiens, 72 h, read-out: Cancer cell lines IC50, HEK 293T.
The next data set concerns NCI/ADR-RES. Put plainly: Cytotoxicity (GI50) assay, NCI/ADR-RES. The format is cell-based, human. Conditions: Homo sapiens, NCI/ADR-RES, read-out: Cancer cell lines GI50, NCI/ADR-RES.
For a further data set, the system named is SNB-75. Put plainly: Cytotoxicity (GI50) assay, SNB-75. The data set is classed as cell-based, human.
The test system of data set [2] is human cancer cell lines. The data set can be described thus: cells. As to conditions: read-out: GI50, range over the cell lines of Table 3.
For data set [3], the system named is human cancer cell lines.
[4] abbreviates: human uterine sarcoma cell line, 72 hours, CellTiter-Glo.
[5] abbreviates: Homo sapiens, OVCAR-8, read-out: Cancer cell lines GI50, OVCAR-8.
[6] abbreviates: Homo sapiens, MDA-MB-435, read-out: Cancer cell lines GI50, MDA-MB-435.
Where [7] appears, read: Homo sapiens, MCF7, read-out: Cancer cell lines GI50, MCF-7.
Setting [8] is: Homo sapiens, SNB-75, read-out: Cancer cell lines GI50, SNB-75.
The mark [9] stands for this setting: MES-SA, human uterine sarcoma cell line, 72 hours, CellTiter-Glo.
Setting [10] is: OVCAR-8, human ovarian cancer cell line, read-out: Cancer cell lines GI50, OVCAR-8.
The mark [11] stands for this setting: MCF7, human breast cancer cell line, concentration required to decrease cell growth by 50%, read-out: Cancer cell lines GI50, MCF-7.
The mark [12] stands for this setting: MDA-MB-435, human melanoma cell line, read-out: Cancer cell lines GI50, MDA-MB-435.
Setting [13] is: Homo sapiens, MES SA cell line with marked multidrug resistance, 72 hours, CellTiter-Glo.
The mark [14] stands for this setting: highly drug resistant human ovarian cancer cell line.
[15] abbreviates: SNB-75, human glioblastoma cell line, read-out: Cancer cell lines GI50, SNB-75.

In general, IC50 refers to the concentration at which inhibition is half-maximal. Consider `CC[C@H](C)[C@@H]([C@@H](CC(=O)N1CCC[C@H]1[C@H](OC)[C@@H](C)C(=O)N[C@H](C)[C@@H](O)c1ccccc1)OC)N(C)C(=O)[C@@H](NC(=O)[C@@H](NC)C(C)C)C(C)C` [MMAE, monomethyl auristatin E, reference compound] (H-[NMeV]V[Dil][Dolaproine]-X1), for which the IC50 in the data set with MES SA (setting [4]) is 0.096 nM; in data set [1] it was ≥ 0.068 nM; in the data set on MES SA DX, 88.2 nM.
By EC50 is commonly meant the concentration that produces a half-maximal response. A higher EC50 goes with a less potent agent. As for `CSc1cc(/C=C(\C)[C@@H]2C[C@@H]3N[C@]3(C)CCC[C@H](C)[C@H](O)[C@@H](C)C(=O)C(C)(C)[C@@H](O)CC(=O)O2)nn1C` [compound 40, (1S,3S,7S,10R,11S,12S,16R)-7,11-Dihydroxy-8,8,10,12,16-pentamethyl-3-{(1E)-1-[1-methyl-5-(methylsulfanyl)-1H-pyrazol-3-yl]prop-1-en-2-yl}-4-oxa-17-azabicyclo[14.1.0]heptadecane-5,9-dione], the IC50 worked out at 0.36 nM in the data set with MES SA (Homo sapiens, MES-SA, 72 h); 41.6 nM in the data set on MES SA DX (Homo sapiens, MES-SA, 72 h); 0.59 nM in the data set with HEK 293T. The GI50 with OVCAR-8 (setting [5]) turned out to be 100 nM; in the data set on MDA-MB-435 (setting [6]), 3.5 nM; in the data set with MCF-7 (setting [7]) it was 3.5 nM; in the data set with NCI/ADR-RES, 140 nM; in the data set on SNB-75 (setting [8]) it was 14 nM. The compound also returned an EC50 in the data set on Tubulin ([…]) of 19000 nM.
For `CSc1cc(/C=C(\C)[C@@H]2C/C=C(/C)CCC[C@H](C)[C@H](O)[C@@H](C)C(=O)C(C)(C)[C@@H](O)CC(=O)O2)nn1C` [compound 73, (4S,7R,8S,9S,13Z,16S)-4,8-Dihydroxy-5,5,7,9,13-pentamethyl-16-{(1E)-1-[1-methyl-5-(methylsulfanyl)-1H-pyrazol-3-yl]prop-1-en-2-yl}oxacyclohexadec-13-ene-2,6-dione], the IC50 in the data set on MES SA (setting [9]) was 24.1 nM; in data set [1] (Homo sapiens), 0.17 to 39.2 nM; in the data set on MES SA DX (Homo sapiens, MES-SA, 72 h) it was 39.2 nM. In addition, the GI50 in the data set on OVCAR-8 (setting [10]) was 22 nM; with human cancer cell lines [2], 5 to 52 nM; with MCF-7 (setting [11]) it was 5 nM; in the data set with NCI/ADR-RES, 52 nM. Also, the midpoint of the response in the data set with Tubulin, the EC50, lay at 9300 nM.
Consider `CC(=O)[C@@H]1C[C@@H]2N[C@]2(C)CCC[C@H](C)[C@H](O)[C@@H](C)C(=O)C(C)(C)[C@@H](O)CC(=O)O1` [compound 79, (1S,3S,7S,10R,11S,12S,16R)-3-Acetyl-7,11-dihydroxy-8,8,10,12,16-pentamethyl-4-oxa-17-azabicyclo[14.1.0]heptadecane-5,9-dione], for which the IC50 was > 2500 nM in the data set with MES SA (Homo sapiens, MES-SA, 72 h); > 2500 nM in the data set on MES SA DX (Homo sapiens, MES-SA, 72 h); > 2500 nM in the data set with HEK 293T. The GI50 with OVCAR-8 (setting [5]), in the data set on MDA-MB-435 (setting [6]), in the data set with MCF-7 (setting [7]), in the data set with NCI/ADR-RES and with SNB-75 (setting [8]) was > 5000 nM each time. Besides, the EC50 in the data set with Tubulin ([…]) was > 60000 nM.
For the compound `CC(=O)[C@@H]1C[C@@H]2N(CCO)[C@]2(C)CCC[C@H](C)[C@H](O)[C@@H](C)C(=O)C(C)(C)[C@@H](O)CC(=O)O1` (stereo partly drawn) [compound 81, (1S,3S,7S,10R,11S,12S,16R)-3-Acetyl-7,11-dihydroxy-17-(2-hydroxyethyl)-8,8,10,12,16-penta-methyl-4-oxa-17-azabicyclo[14.1.0]heptadecane-5,9-dione], the IC50 with MES SA (setting [9]) is 36.1 nM; in the data set on MES SA DX (setting [13]) it was > 400 nM. Moreover, the GI50 with OVCAR-8 (setting [10]) is 550 nM; with MDA-MB-435 (setting [12]), 200 nM; with MCF-7 (setting [11]), 580 nM; with NCI/ADR-RES (setting [14]), > 5000 nM; with SNB-75 (setting [15]), 360 nM. Moreover, the EC50 with Tubulin ([…]) was > 60000 nM. Further, the “cytotoxicity (in words)” value in the data set with human cancer cell lines [3] is given as “significant cytotoxicity”.
For `CC(=O)O[C@H]1C(=O)[C@@]2(C)[C@H]([C@H](OC(=O)c3ccccc3)[C@]3(O)C[C@H](OC(=O)[C@H](O)[C@@H](NC(=O)c4ccccc4)c4ccccc4)C(C)=C1C3(C)C)[C@]1(OC(C)=O)CO[C@@H]1C[C@@H]2O` [paclitaxel, reference compound], the values for the IC50 (in the data set with MES SA (setting [9]); in data set [1] (Homo sapiens); in the data set with MES SA DX (setting [13])) were 2.47 nM, ≥ 1.76 nM and > 400 nM, respectively. Besides, the GI50 was 26 nM in the data set with OVCAR-8 (setting [10]); 5 nM in the data set on MDA-MB-435 (setting [12]); 7.8 nM with MCF-7 (setting [11]); 4800 nM in the data set on NCI/ADR-RES (setting [14]); 15 nM in the data set with SNB-75 (setting [15]). The EC50 in the data set with Tubulin ([…]) amounted to 15000 nM.
Turning to “N-acetyl calicheamicin γ1^1 [NAC, reference compound]”, the IC50 was 0.364 nM with MES SA (setting [4]), ≥ 0.166 nM in data set [1] and 15.3 nM with MES SA DX.
